# Legend:
# Tyk2 = Tyk2 (Homo sapiens, UniProt P29597); experiment: JAK kinase inhibition assay (EZ Reader, peptide substrate phosphorylation) - Tyk2; format: biochemical; details: Tyk2 kinase 1 nM; 8 concentration points, max 10 μM
# Description: (§1) Assay for Identifying Inhibitory Effects of Compounds on JAK Kinases
# (§2) Janus kinases (JAK), including JAK1, JAK2, JAK3 and Tyk2, transduce a cytokine-mediated signal through a JAK-STAT pathway. The kinases are 120-140 kDa in size and have 7 determined homology regions: JH1 to JH7. JH1 is an important region for enzymatic activity and has typical characteristics of tyrosine kinases. Phosphorylation of tyrosine leads to a change in the conformation of JAK protein, thereby promoting binding of substrate. The JAK-STAT system includes three main parts: receptors penetrating a cell membrane, Janus kinases binding to the receptors, and signal transducers and activators of transcription (STAT) for transmitting signals to a nucleus and DNA. When cytokines bind to receptors, JAK phosphorylates the receptors and attracts STAT proteins. The STAT proteins are also phosphorylated and combined with one another to form dimers. The dimers enter the nucleus and bind to DNA, thereby leading to gene transcription.
# (§3) EZ Reader from PerkinElmer can be used to detect the phosphorylation of polypeptide substrates catalyzed by kinases. The device is based on microfluidic techniques, and can directly detect fluorescently labeled substrates and products. The separation step is achieved by controlling the pressure and electric field strength in the microfluidic chip. In kinase assays, a product conversion ratio is usually controlled to be 20-30%. A biological test is used to identify inhibitory effects of compounds on JAKs.
# (§4) Compound powder was dissolved in DMSO, sealed and stored in a freezer under −20° C. The in-house compound Ref1 was used as a positive control for JAK1, JAK2 and Tyk2 tests, and Ref2 was used as a positive control for JAK3 tests.
# (§5) S2.8. Assay buffer: 20 mM HEPES buffer, pH 7.4, 10 mM magnesium chloride, 0.01% bovine serum albumin BSA, 0.0005% Tween-20 and 1 mM dithiothreitol solution.
# (§6) S2.9. Stop buffer: 180 mM HEPES buffer, 20 mM ethylenediaminetetraacetic acid and 0.2% coating reagent 3.
# (§7) S2.10. Separation buffer: 100 mM HEPES buffer, 10 mM ethylenediaminetetraacetic acid, 0.0005% Tween 20, 0.1% coating reagent 3 and 1% dimethyl sulfoxide.
# (§8) The compound was dissolved in dimethyl sulfoxide and diluted to 10 mM concentration, a certain volume of solution was taken and diluted to 0.6 mM concentration, 10 μL of the 0.6 mM dilution was added to a 384-well microplate, and then was diluted 3-fold with a total of 8 concentration points.
# (§9) Positive control (HPE1): Ref1, final concentration: 10 μM […]
# (§10) Negative control (ZPE): DMSO, final content: 1.6%
# (§11) Compounds: maximum final concentration: 10 μM; 3-fold dilution, 8 concentration points and 2 duplicates.
# (§12) S4.1. 250 nL of the compound was added to each well of the assay microplate by using ECHO, and centrifuged at 1000 rpm for 1 minute.
# (§13) S4.2. 5 μL of the assay buffer was added and agitated for a few seconds to fully dissolve the compound.
# (§14) S4.3. 5 μL of 3× substrate solution and 5 μL of 3× kinase solution were added and centrifuged at 800 rpm for 1 minute.
# (§15) S4.4. Final concentrations of JAK1, JAK2, JAK3 and Tyk2 kinases in the reaction system were 20 nM, 1 nM, 1 nM and 1 nM respectively.
# (§16) S4.5. Incubation at room temperature, where kinases had time differences, and different batches of kinases had time differences.
# (§17) S4.6. When 20%-30% of the reaction completed, 15 μL of stop buffer was added to stop the reaction, and centrifuged at 1000 rpm for 2 minutes.
# (§18) S4.7. The microplates were placed on EZ Reader for reading.
# (§19) S4.8. Readings on EZ Reader were calculated by using a peak height, where product conversion ratio (%)=product/(product+substrate)*100.
# (§20) 5. Data Processing: IC50 calculation
# (§21) A graphing software Xlfit was used to form a concentration curve of the test compound, and an IC50 value was calculated.
# (§22) “A” means “≥10 μM”; “B” means “≥1 μM and <10 μM”; “C” means “≥0.1 μM and <1 μM”; and “D” means “<0.1 μM”.
# JAK1 = JAK1 (Homo sapiens, UniProt P23458); experiment: JAK kinase inhibition assay (EZ Reader, peptide substrate phosphorylation) - JAK1; format: biochemical; details: JAK1 kinase 20 nM; 8 concentration points, max 10 μM
# Description: as §1, §2, §3, §4, §5, §6, §7, §8, §9, §10, §11, §12, §13, §14, §15, §16, §17, §18, §19, §20, §21, §22
# JAK1, sequence (P23458 whole entry): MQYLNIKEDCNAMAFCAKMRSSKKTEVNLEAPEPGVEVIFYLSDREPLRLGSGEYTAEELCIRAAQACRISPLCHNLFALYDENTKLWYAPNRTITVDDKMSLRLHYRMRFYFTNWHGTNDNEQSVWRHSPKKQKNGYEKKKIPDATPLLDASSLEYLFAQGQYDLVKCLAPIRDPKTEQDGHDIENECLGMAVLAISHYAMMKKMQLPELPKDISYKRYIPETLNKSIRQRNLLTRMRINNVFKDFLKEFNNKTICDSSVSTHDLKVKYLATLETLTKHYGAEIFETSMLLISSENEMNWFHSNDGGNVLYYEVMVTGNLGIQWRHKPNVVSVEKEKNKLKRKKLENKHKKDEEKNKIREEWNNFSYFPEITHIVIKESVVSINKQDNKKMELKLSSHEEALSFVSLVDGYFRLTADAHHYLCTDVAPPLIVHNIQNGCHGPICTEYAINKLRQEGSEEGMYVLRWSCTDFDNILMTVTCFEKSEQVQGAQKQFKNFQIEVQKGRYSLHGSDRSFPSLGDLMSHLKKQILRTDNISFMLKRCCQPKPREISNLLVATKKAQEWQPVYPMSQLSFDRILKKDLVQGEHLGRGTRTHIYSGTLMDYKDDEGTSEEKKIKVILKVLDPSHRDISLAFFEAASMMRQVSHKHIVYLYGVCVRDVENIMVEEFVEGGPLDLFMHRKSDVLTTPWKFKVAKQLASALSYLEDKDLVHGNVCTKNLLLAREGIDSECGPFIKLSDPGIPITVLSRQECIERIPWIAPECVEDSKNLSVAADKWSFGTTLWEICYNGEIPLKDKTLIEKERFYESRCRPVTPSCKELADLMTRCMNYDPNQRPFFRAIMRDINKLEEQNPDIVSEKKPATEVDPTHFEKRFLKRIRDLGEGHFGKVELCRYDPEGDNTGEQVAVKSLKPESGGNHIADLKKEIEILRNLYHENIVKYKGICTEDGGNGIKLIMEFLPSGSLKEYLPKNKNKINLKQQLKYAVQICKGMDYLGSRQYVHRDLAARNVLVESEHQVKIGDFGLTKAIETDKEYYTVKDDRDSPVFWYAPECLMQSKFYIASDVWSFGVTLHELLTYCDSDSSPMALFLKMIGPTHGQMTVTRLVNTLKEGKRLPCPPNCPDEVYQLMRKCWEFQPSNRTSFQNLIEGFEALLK
# Tyk2, sequence (P29597 whole entry): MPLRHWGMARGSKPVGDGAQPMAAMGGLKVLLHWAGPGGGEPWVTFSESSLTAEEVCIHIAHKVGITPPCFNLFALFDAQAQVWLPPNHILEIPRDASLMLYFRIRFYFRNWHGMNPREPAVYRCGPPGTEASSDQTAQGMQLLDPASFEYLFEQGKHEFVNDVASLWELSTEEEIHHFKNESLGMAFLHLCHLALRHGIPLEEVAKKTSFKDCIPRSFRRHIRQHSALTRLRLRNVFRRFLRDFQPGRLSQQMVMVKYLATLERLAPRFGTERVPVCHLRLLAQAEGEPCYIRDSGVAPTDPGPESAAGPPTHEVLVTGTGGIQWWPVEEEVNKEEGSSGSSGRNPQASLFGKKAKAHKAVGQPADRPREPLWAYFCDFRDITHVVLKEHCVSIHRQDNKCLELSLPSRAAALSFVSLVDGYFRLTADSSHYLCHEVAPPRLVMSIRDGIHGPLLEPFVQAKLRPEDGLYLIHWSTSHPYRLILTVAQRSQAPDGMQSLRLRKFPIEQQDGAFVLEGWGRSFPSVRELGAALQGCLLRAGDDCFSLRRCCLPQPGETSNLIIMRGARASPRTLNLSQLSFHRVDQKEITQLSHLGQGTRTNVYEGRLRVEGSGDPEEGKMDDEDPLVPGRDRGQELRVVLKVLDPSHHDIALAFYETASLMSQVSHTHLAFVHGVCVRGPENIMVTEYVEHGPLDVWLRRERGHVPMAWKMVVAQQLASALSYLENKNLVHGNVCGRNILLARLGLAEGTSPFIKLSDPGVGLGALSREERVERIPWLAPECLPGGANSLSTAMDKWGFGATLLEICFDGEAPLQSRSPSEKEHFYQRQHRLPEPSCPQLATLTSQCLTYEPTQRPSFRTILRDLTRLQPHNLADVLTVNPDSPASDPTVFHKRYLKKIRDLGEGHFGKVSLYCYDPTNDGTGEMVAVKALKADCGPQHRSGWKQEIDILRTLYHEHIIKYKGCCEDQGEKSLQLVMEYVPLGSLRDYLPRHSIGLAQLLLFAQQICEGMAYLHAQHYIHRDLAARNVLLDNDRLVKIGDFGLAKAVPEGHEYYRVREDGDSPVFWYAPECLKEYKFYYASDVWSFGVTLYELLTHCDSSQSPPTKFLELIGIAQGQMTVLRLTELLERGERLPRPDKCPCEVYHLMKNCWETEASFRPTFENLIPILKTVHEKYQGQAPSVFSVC
IC50 (Tyk2) [µM],IC50 (JAK1) [µM],Structure (SMILES)
1 to 10,1 to 10,"Cn1cc(Nc2nccc(-c3cnc(NC(=O)CC#N)nc3)n2)cn1 [TDM-180902, 2-cyano-N-(2-((1-methyl-1H-pyrazol-4-yl)amino)-[4,5′-bipyrimidin]-2′-yl)acetamide]"
0.1 to 1,< 0.1,"Cn1cc(Nc2nccc(-n3ccc4c(NC(=O)CC(F)(F)F)cccc43)n2)cn1 [TDM-180882, 3,3,3-trifluoro-N-(1-(2-((1-methyl-1H-pyrazol-4-yl)amino)pyrimidin-4-yl)-1H-indol-4-yl)propanamide]"
0.1 to 1,0.1 to 1,Cn1cc(Nc2nccc(-c3ccc(NC(=O)CC4CC4)c4[nH]ccc34)n2)cn1 [TDM-180920]
≥ 10,≥ 10,"Cn1cc(Nc2nccc(-c3ccnc(NC(=O)C4CC4(F)F)c3)n2)cn1 (stereo not drawn) [TDM-180792, 2,2-difluoro-N-(4-(2-((1-methyl-1H-pyrazol-4-yl)amino)pyrimidin-4-yl)pyridin-2-yl)cyclopropane-1-carboxamide]"
1 to 10,≥ 10,"CC(=O)N1CCN(Cc2ccc(-c3ccnc(Nc4cnn(C)c4)n3)cc2)CC1 [TDM-180789, 1-(4-(4-(2-((1-methyl-1H-pyrazol-4-yl)amino)pyrimidin-4-yl)benzyl)piperazin-1-yl)ethan-1-one]"
1 to 10,0.1 to 1,"Cn1cc(Nc2nccc(-n3ccc4c(NC(=O)CC5CC5)cccc43)n2)cn1 [TDM-180911, 2-cyclopropyl-N-(1-(2-((1-methyl-1H-pyrazol-4-yl)amino)pyrimidin-4-yl)-1H-indol-4-yl)acetamide]"
1 to 10,1 to 10,"Cc1cc(-c2ccnc(Nc3cnn(C)c3)n2)cnc1NC(=O)CC#N [TDM-180907, 2-cyano-N-(3-methyl-5-(2-((1-methyl-1H-pyrazol-4-yl)amino)pyrimidin-4-yl)pyridin-2-yl)acetamide]"
0.1 to 1,0.1 to 1,"Cn1cc(Nc2nccc(-c3ccc(NC(=O)CC#N)c4[nH]ncc34)n2)cn1 [TDM-180898, 2-cyano-N-(4-(2-((1-methyl-1H-pyrazol-4-yl)amino)pyrimidin-4-yl)-1H-indazole-7-yl)acetamide]"
≥ 10,≥ 10,"COCC(=O)Nc1cc(-c2ccnc(Nc3cnn(C)c3)n2)ccn1 [TDM-180777, 2-methoxy-N-(4-(2-((1-methyl-1H-pyrazol-4-yl)amino)pyrimidin-4-yl)pyridin-2-yl)acetamide]"
1 to 10,≥ 10,"Cc1cc(-c2ccnc(Nc3cnn(C)c3)n2)ccc1-n1nccc1C1CC1 [TDM-180782, 4-(4-(5-cyclopropyl-1H-pyrazol-1-yl)-3-methylphenyl)-N-(1-methyl-1H-pyrazol-4-yl)pyrimidin-2-amine]"
1 to 10,0.1 to 1,"Cn1cc(Nc2nccc(-c3cnc(NC(=O)CC(F)(F)F)c(F)c3)n2)cn1 [TDM-180889, 3,3,3-trifluoro-N-(3-fluoro-S-(2-((1-methyl-1H-pyrazol-4-yl)amino)pyrimidin-4-yl)pyridin-2-yl)propanamide]"
≥ 10,≥ 10,"Cn1cc(Nc2nccc(-c3ccnc(NC(=O)CC(F)(F)F)c3)n2)cn1 [TDM-180790, 3,3,3-trifluoro-N-(4-(2-((1-methyl-1H-pyrazol-4-yl)amino)pyrimidin-4-yl)pyridin-2-yl)propanamide]"
1 to 10,0.1 to 1,"Cn1cc(Nc2nccc(-c3cnc(NC(=O)CC(F)(F)F)cn3)n2)cn1 [TDM-180905, 3,3,3-trifluoro-N-(5-(2-((1-methyl-1H-pyrazol-4-yl)amino)pyrimidin-4-yl)pyrazin-2-yl)propanamide]"
1 to 10,1 to 10,"Cn1cc(Nc2nccc(-c3ccc(C(=O)NC4CC4)cc3)n2)cn1 [TDM-180852, N-cyclopropyl-4-(2-((1-methyl-1H-pyrazol-4-yl)amino)pyrimidin-4-yl)benzamide]"
≥ 10,0.1 to 1,Cn1cc(Nc2nccc(-c3ccc(NC(=O)CC#N)c4cc[nH]c34)n2)cn1 [TDM-180923]
